Measured values reported in patent publication US4996227A, “3-(heteroarylalkyene)- and 3-(arylalkylene)-2,4(3H,5H)-heterocyclic diones as cancer chemotherapy drugs” (priority 1989, dated 1991).

Columns and labels:
Format in all cases: cell-based
[1] = system: human tumor H5319 BREAST; test: Human Tumor Stem Cell Assay, colony growth after one hour exposure; conditions: HI: furandione 1.0 mcg/ml; standard drugs 50% of peak plasma concentration; 1 h
From the text: (§1) The in vitro Human Tumor Stem Cell Assay procedure described as follows has several advantages for testing the effectiveness of chemotherapy drugs such as the 3-(heteroarylalkylene)-2,4(3H,5H)-furandiones. The first advantage is that fresh tumor cells from a variety of tumor types were used rather than a small number of cell lines which have undergone severe selection pressures as they are passed in vitro. The second advantage is that only the anchorage-independent tumor cells will form colonies in soft agar so that any non-malignant cells present in the sample will not form colonies. Perhaps the most important advantage, however, is the emphasis on cells which have the ability to form colonies. These cells, which are generally called stem cells, usually comprise only a small percentage of all tumor cells. They are thought to be the most important cells for growth and distant spread of a tumor. In particular, these cells have the potential to leave the primary tumor and form new tumors at distant sites (called metastases). It is the effectiveness against these very important stem cells that the Human Tumor Stem Cell Assay measures.
(§2) One of the 3-(heteroarylalkylene)-2,4(3H,5H)-furandione compounds, 3-[(5-methyl-2-thienyl) methylene]-2,4(3H,5H)-furandione was evaluated against a series of 10 human tumors in the in vitro Human Tumor Cell Assay, along with conventional and standard chemotherapy agents.
(§3) In the procedure, a single cell suspension was prepared from tumors excised from patients during therapeutic or diagnostic surgical procedures. The human tumor cells were exposed to known anticancer drugs or to [(5-methyl-2-thienyl)methylene]-2,4 (3H, 5H)-furandione at a low (0.2 mcg/ml) or a high (1.0 mcg/ml) concentration for one hour. […] The suspension was washed with tissue culture medium to remove the drug.
(§4) The suspension was then cultured in a double soft agar suspension. Control cells which had been treated identically, except for exposure to the drugs, were also cultured. After one to two weeks, both the tumor cells and the control cells formed colonies in the soft agar which were enumerated under a microscope. The number of colonies grown from the drug-treated cells was compared to the number of colonies grown from the control cells, and the percentage growth after exposure to the drug was calculated.
(§5) The results are illustrated in Table 1, wherein the various numbers indicate the percentage of growth. For example, a small number like 6 means that the number of colonies is only 6% of the number without addition of the compound. On the other hand, a large number like 120 means that the number of colonies is 20% greater with the compound than without.
(§6) Of the nine tumors for which the higher concentration (1.0 mcg/ml) of the furandione was used, five gave inhibition of colony growth corresponding to borderline sensitive (30-50% growth) and four gave inhibition corresponding to sensitivity (0-30% growth). Clinical drugs are normally tested at 10% of their peak plasma concentration. For the standard chemotherapy drugs shown in Table 1, the low concentration (LO) corresponds to this 10% level, and the high concentration (HI) is at 50% of the peak plasma concentration. Of the same nine tumors, only two would have been rated as sensitive or borderline sensitive to any of the other clinical drugs tested.

[2] = system: human tumor H5325 SARCOMA; test: as above; conditions: 1 h
From the text: as §1, §2, §3, §4, §5, §6

[3] = system: human tumor H5330 THYMUS; test: as above; conditions: 1 h
From the text: as §1, §2, §3, §4, §5, §6

[4] = system: human tumor H5337 COLON; test: as above; conditions: 1 h
From the text: as §1, §2, §3, §4, §5, §6

[5] = system: human tumor H5349 BREAST; test: as above; conditions: 1 h
From the text: as §1, §2, §3, §4, §5, §6

[6] = system: human tumor H5331 OVARY; test: as above; conditions: 1 h
From the text: as §1, §2, §3, §4, §5, §6

[7] = system: human tumor H5322 STOMACH; test: as above; conditions: 1 h
From the text: as §1, §2, §3, §4, §5, §6

[8] = system: KS62 strain stem-cell human leukemia cells; test: Inhibition of human leukemia cell growth in vitro, as done in Example 3; conditions: for inhibition at 1 µg/mL / inhibition at 5 µg/mL / inhibition at 10 µg/mL: Homo sapiens
Procedure: A conventionally available cell line (K562) derived from human chronic granulocytic leukemia was employed in an in vitro procedure. The leukemia cell line was cultured in a suspension of RPMI 1640 plus 10% fetal calf serum. All initial cell concentrations for the cultures were 0.65 times 10^5 cells/ml. Four separate suspension cultures were employed with the first suspension culture having no additions. The second suspension culture included 100 microliters of the solvent DMSO per 10 ml of culture (control). The third culture contained 1 ug/ml of 3[[5-methyl-2 thienyl]methylene]-2, 4 (3H, 5H) furandione and the fourth culture contained 1 ug/ml of 3[[3-methyl-2-thienyl]methylene]-2, 4 (3H, 5H) furandione. The cell concentration of each of the four cultures was determined. After three days and again after five days.
In this example, aliquots of 1.0, 5.0 and 10.0 mcg/ml of each of the family compounds was prepared and assayed against KS62 strain stem-cell human leukemia cells in an in vitro procedure as done in Example 3 above.

[9] = system: human tumor H5318 OVARY; test: Human Tumor Stem Cell Assay, colony growth after one hour exposure; conditions: HI: furandione 1.0 mcg/ml; standard drugs 50% of peak plasma concentration; 1 h
From the text: as §1, §2, §3, §4, §5, §6

[10] = HI: furandione 1.0 mcg/ml, standard drugs 50% of peak plasma concentration
[11] = LO: furandione 0.2 mcg/ml, standard drugs 10% of peak plasma concentration

Compound	inhibition at 1 µg/mL ([8]; 1.0 mcg/ml) [%]	inhibition at 5 µg/mL ([8]; 5.0 mcg/ml) [%]	inhibition at 10 µg/mL ([8]; 10.0 mcg/ml) [%]	other results
N[C@@H](Cc1ccc(N(CCCl)CCCl)cc1)C(=O)O [MPL, MELPHALAN]				percentage of growth (colonies vs control) [1]: 85%; percentage of growth (colonies vs control) [2, 10]: 12%; percentage of growth (colonies vs control) [3, 10]: 92%; percentage of growth (colonies vs control) [3, 11]: 31%; percentage of growth (colonies vs control) [4, 10]: 58%; percentage of growth (colonies vs control) [4, 11]: 76%; percentage of growth (colonies vs control) [5, 10]: 65%; percentage of growth (colonies vs control) [5, 11]: 63%; percentage of growth (colonies vs control) [6, 10]: 76%; percentage of growth (colonies vs control) [7, 10]: 61%; percentage of growth (colonies vs control) [7, 11]: 54%
CCOC(=O)c1ccc(C=C2C(=O)CNC2=O)s1 [Compound 65]	7	32	75	
CC1(C)OC(=O)C(=Cc2ccc(I)s2)C1=O [Compound 59, 3-[(5-iodo-2-thienyl)methylene]-5.5-dimethyl-2,4 (3H)furandione]	1	37	94	
Cc1ccsc1C=C1C(=O)CNC1=O [Compound 66, 3-(3-methyl-2-thienyl)methylene1-2,4(3H,5H) pyrrolidinedione]	0	15	54	
CC1(C)OC(=O)C(=Cc2ccc(Br)s2)C1=O [Compound 60]	0	96	100	
O=C1COC(=O)C1=Cc1ccc(I)s1 [Compound 48, 3-[(5-iodo-2-thienyl)-methylene]-2.4(3H,5H)-furandione]	0	0	98	
Cc1ccsc1C=C1C(=O)COC1=O [Compound 51, 3-[(3-methyl-2-thienyl)methylene]-2.4(3H.5H)-furandione]	37	100	100	
O=C1CSC(=O)C1=Cc1ccc(Br)s1 [Compound 70, 3-[(5-bromo-2-thienyl)methylene]-2.4(3H,5H)-1-thiophene dione]	22	30	54	
O=C1COC(=O)C1=Cc1ccc(N2CCCCC2)s1 [Compound 56]				% Inhibition ([8]; 1.0 mcg/ml): 0%; % Inhibition ([8]; 5.0 mcg/ml): 0%; % Inhibition ([8]; 10.0 mcg/ml): 0%
Cc1ccc(C=C2C(=O)CSC2=O)s1 [Compound 69]	13	41	100	
O=c1[nH]cc(F)c(=O)[nH]1 [Compound 5FU, 5FLUORACIL]				percentage of growth (colonies vs control) [1]: 111%; percentage of growth (colonies vs control) [2, 10]: 83%; percentage of growth (colonies vs control) [4, 11]: 62%; percentage of growth (colonies vs control) [5, 10]: 117%; percentage of growth (colonies vs control) [6, 10]: 51%; percentage of growth (colonies vs control) [6, 11]: 94%; percentage of growth (colonies vs control) [7, 10]: 79%
Cc1ccsc1C=C1C(=O)OC(C)(C)C1=O [Compound 62, 3[(3-methyl-2-thienyl)methylene]-5,5dimethyl-2,4(3H,5H) furandione]	6	99	100	
O=C1COC(=O)C1=Cc1ccc(C(=O)O)s1 [Compound 50, 3-[(5-carboxy-2-thienyl)-methylene]-2,4(3H,5H)-furandione]	0	0	0	
CN(C)c1nc(N(C)C)nc(N(C)C)n1 [HXM, HEXAMETHYLMELAMINE]				percentage of growth (colonies vs control) [9]: 102%; percentage of growth (colonies vs control) [6, 10]: 84%
CN(C)c1ccc(C=C2C(=O)COC2=O)cc1 [Compound 57]	17	94	96	
CCOC(=O)c1ccc(C=C2C(=O)OC(C)(C)C2=O)s1 [Compound 61, 3-(5-carboxyethyl-2-thienyl)methylene1-5.5-dimethyl 11-2,4(3H)furandione]	0	18	42	
O=C1COC(=O)C1=Cc1ccc(Cl)c(Cl)c1 [Compound 55, 3-[(3,4-dichloro-1-phenyl)methylene]-2,4(3H,5H) -furandione]				% Inhibition ([8]; 1.0 mcg/ml): 0%; % Inhibition ([8]; 5.0 mcg/ml): 0%; % Inhibition ([8]; 10.0 mcg/ml): 0%
O=C1COC(=O)C1=CC=Cc1ccc(Br)s1 [Compound 54]	27	99	100	
COc1cc([C@@H]2c3cc4c(cc3[C@@H](O[C@@H]3O[C@@H]5CO[C@@H](C)O[C@H]5[C@H](O)[C@H]3O)[C@H]3COC(=O)[C@H]23)OCO4)cc(OC)c1O [VP16]				percentage of growth (colonies vs control) [3, 10]: 77%
O=C1CNC(=O)C1=Cc1ccc(Br)s1 [Compound 64]	0	0	0	
Cc1ccc(C=C2C(=O)CNC2=O)s1 [Compound 63, 3-[(5-methyl-2-thienyl)methylene] -2,4(3H.5H) pyrrolidinedione]	0	0	0	
COc1ccc(C=C2C(=O)COC2=O)c(OC)c1 [Compound 52, 3-[(2,4-dimethoxy-1-phenyl)methylene]-2,4(3H,5H)-furandione]	8	38	95	
CN(C)/N=N/c1[nH]cnc1C(N)=O [DTIC, DACARBAZINE]				percentage of growth (colonies vs control) [3, 10]: 59%; percentage of growth (colonies vs control) [3, 11]: 91%
Cc1ccc(C=CC=C2C(=O)COC2=O)s1 [Compound 53, 3-[(5-methyl-2-thienyl)propylenediene)-2,4(3H,5H)-furandione]	0	71	99	
Cc1ccc(C=C2C(=O)OC(C)(C)C2=O)s1 [Compound 58]	51	97	100	
O=C1CNC(=O)C1=Cc1ccc(N2CCCCC2)s1 [Compound 68, 3-(5-N-piperdyl-2-thienyl)methylene1-2.4(3H.5H) pyrrolidinedione]				% Inhibition ([8]; 1.0 mcg/ml): 0%; % Inhibition ([8]; 5.0 mcg/ml): 0%; % Inhibition ([8]; 10.0 mcg/ml): 0%
ACTINOMYCEN D				percentage of growth (colonies vs control) [2, 10]: 22%; percentage of growth (colonies vs control) [2, 11]: 6%
Cc1ccc(C=CC=C2C(=O)CNC2=O)s1 [Compound 67, 3-[(5-methyl-2-thienyl)propylenediene]-2,4(3H,5H) pyrrolidinedione]	0	0	94	
CCOC(=O)c1ccc(C=C2C(=O)COC2=O)s1 [Compound 45, 3-[(5-ethoxycarbonyl-2-thienyl)-methylene]-2,4(3H,5H) -furandione]	0	0	100	
O=C1COC(=O)C1=Cc1ccc(Br)s1 [Compound 49]	0	0	98	
